Assay results reported in ChEMBL document CHEMBL4422660, “Synthesis of NSC 106084 and NSC 14778 and evaluation of their DNMT inhibitory activity” (Bioorg Med Chem Lett, 2019).
Active and inactive are the calls of the source. No cut-off for these calls is given here.

Tested on: DNA
Experiment: Induction of DNA intercalation using nucleosomal DNA (unknown origin) up to 1 mM by CYBR Green dye-based fluorescence assay
Assay type: nucleic-acid assay

Activity: inactive
Compound: O=C(O)c1cc(Cc2ccc(O)c(C(=O)O)c2)ccc1O
